Measured values: patent publication US12168763B2, “Microorganisms and methods for reducing bacterial contamination” (Melio Peptide Systems Inc., priority 2020, dated 2024)

System: L. fermentum NCCB 46038
Test: Soft-agar overlay assay of S. cerevisiae BY4742 secreting persulcatusin variants from pHVXU plasmids
Conditions: for Change in activity: alanine scanning of persulcatusin, relative to wild-type, soft-agar overlay; for Increase in Activity: random mutagenesis clones of persulcatusin, increase of growth inhibition zones

Substance	Change in activity	Increase in Activity
Engineered persulcatusin with [Mutation L28A, Engineered persulcatusin with [L28A]]	+	
Y36A: persulcatusin (SEQ ID NO: 1) alanine-scan variant Y36A (GFGCPFNQGACHRHCRSIGRRGGYCAGLFKQTCTCASR; listed as Ixodes persulcatus) [Mutation Y36A]	−	
Engineered persulcatusin with [Mutation S7-192-4, Engineered persulcatusin with [N7D/H14F/R16S]]		++
F2A: persulcatusin (SEQ ID NO: 1) alanine-scan variant F2A (GAGCPFNQGACHRHCRSIGRRGGYCAGLFKQTCTCYSR; listed as Ixodes persulcatus) [Mutation F2A]	−	
S17A: persulcatusin (SEQ ID NO: 1) alanine-scan variant S17A (GFGCPFNQGACHRHCRAIGRRGGYCAGLFKQTCTCYSR; listed as Ixodes persulcatus) [Mutation S17A]	−	
C4A: persulcatusin (SEQ ID NO: 1) alanine-scan variant C4A (GFGAPFNQGACHRHCRSIGRRGGYCAGLFKQTCTCYSR; listed as Ixodes persulcatus) [Mutation C4A]	−	
Engineered persulcatusin with [Mutation R21A, Engineered persulcatusin with [R21A]]	+	
T32A: persulcatusin (SEQ ID NO: 1) alanine-scan variant T32A (GFGCPFNQGACHRHCRSIGRRGGYCAGLFKQACTCYSR; listed as Ixodes persulcatus) [Mutation T32A]	−	
Engineered persulcatusin with [Mutation S7-192-26, Engineered persulcatusin with [F6L/G9D/H14Q]]		+++
Engineered persulcatusin with [Mutation R16A, Engineered persulcatusin with [R16A]]	+	
G1A: persulcatusin (SEQ ID NO: 1) alanine-scan variant G1A (AFGCPFNQGACHRHCRSIGRRGGYCAGLFKQTCTCYSR; listed as Ixodes persulcatus) [Mutation G1A]	−	
C25A: persulcatusin (SEQ ID NO: 1) alanine-scan variant C25A (GFGCPFNQGACHRHCRSIGRRGGYAAGLFKQTCTCYSR; listed as Ixodes persulcatus) [Mutation C25A]	−	
Engineered persulcatusin with [Mutation S7-140-2, Engineered persulcatusin with [R13S]]		+
Engineered persulcatusin with [Mutation S7-140-42, Engineered persulcatusin with [N7D/F29L]]		++
Engineered persulcatusin with [Mutation S7-144-4, Engineered persulcatusin with [G9D/R20S]]		++
Engineered persulcatusin with [Mutation R20A, Engineered persulcatusin with [R20A]]	+	
N7A: persulcatusin (SEQ ID NO: 1) alanine-scan variant N7A (GFGCPFAQGACHRHCRSIGRRGGYCAGLFKQTCTCYSR; listed as Ixodes persulcatus) [Mutation N7A]	−	
Engineered persulcatusin with [Mutation S7-140-3, Engineered persulcatusin with [R20S/R21G]]		+
Engineered persulcatusin with [Mutation S7-192-22, Engineered persulcatusin with [F6L/N7D/H14Q]]		++
C11A: persulcatusin (SEQ ID NO: 1) alanine-scan variant C11A (GFGCPFNQGAAHRHCRSIGRRGGYCAGLFKQTCTCYSR; listed as Ixodes persulcatus) [Mutation C11A]	−	
Engineered persulcatusin with [Mutation S7-144-43, Engineered persulcatusin with [R13S/L28M]]		+
Engineered persulcatusin with [Mutation F29A, Engineered persulcatusin with [F29A]]	+	
Engineered persulcatusin with [Mutation S7-156-36, Engineered persulcatusin with [F6S/R13S/R16K/I18V]]		++
C35A: persulcatusin (SEQ ID NO: 1) alanine-scan variant C35A (GFGCPFNQGACHRHCRSIGRRGGYCAGLFKQTCTAYSR; listed as Ixodes persulcatus) [Mutation C35A]	−	
G27A: persulcatusin (SEQ ID NO: 1) alanine-scan variant G27A (GFGCPFNQGACHRHCRSIGRRGGYCAALFKQTCTCYSR; listed as Ixodes persulcatus) [Mutation G27A]	−	

Substance	Change in activity	Increase in Activity
Engineered persulcatusin with [Mutation S7-140-9, Engineered persulcatusin with [A26D]]		+
Engineered persulcatusin with [Mutation F6A, Engineered persulcatusin with [F6A]]	+	
K30A: persulcatusin (SEQ ID NO: 1) alanine-scan variant K30A (GFGCPFNQGACHRHCRSIGRRGGYCAGLFAQTCTCYSR; listed as Ixodes persulcatus) [Mutation K30A]	−	
Engineered persulcatusin with [Mutation S7-140-8, Engineered persulcatusin with [R21G]]		+
H12A: persulcatusin (SEQ ID NO: 1) alanine-scan variant H12A (GFGCPFNQGACARHCRSIGRRGGYCAGLFKQTCTCYSR; listed as Ixodes persulcatus) [Mutation H12A]	−	
T34A: persulcatusin (SEQ ID NO: 1) alanine-scan variant T34A (GFGCPFNQGACHRHCRSIGRRGGYCAGLFKQTCACYSR; listed as Ixodes persulcatus) [Mutation T34A]	−	
Engineered persulcatusin with [Mutation S7-140-7, Engineered persulcatusin with [R16G/F29V]]		+
Engineered persulcatusin with [Mutation S7-176-4-1, Engineered persulcatusin with [F6V/R13S/A26D]]		++
G22A: persulcatusin (SEQ ID NO: 1) alanine-scan variant G22A (GFGCPFNQGACHRHCRSIGRRAGYCAGLFKQTCTCYSR; listed as Ixodes persulcatus) [Mutation G22A]	−	
C15A: persulcatusin (SEQ ID NO: 1) alanine-scan variant C15A (GFGCPFNQGACHRHARSIGRRGGYCAGLFKQTCTCYSR; listed as Ixodes persulcatus) [Mutation C15A]	−	
Engineered persulcatusin with [Mutation S7-140-18, Engineered persulcatusin with [N7D/R16S]]		+
Engineered persulcatusin with [Mutation S7-156-22, Engineered persulcatusin with [G9D/I18F/F29L]]		+
H14A: persulcatusin (SEQ ID NO: 1) alanine-scan variant H14A (GFGCPFNQGACHRACRSIGRRGGYCAGLFKQTCTCYSR; listed as Ixodes persulcatus) [Mutation H14A]	−	
Engineered persulcatusin with [Mutation R13A, Engineered persulcatusin with [R13A]]	+	
Y24A: persulcatusin (SEQ ID NO: 1) alanine-scan variant Y24A (GFGCPFNQGACHRHCRSIGRRGGACAGLFKQTCTCYSR; listed as Ixodes persulcatus) [Mutation Y24A]	−	
Engineered persulcatusin with [Mutation S7-176-5-1, Engineered persulcatusin with [F6L/G9D/R20K]]		++
Engineered persulcatusin with [Mutation S7-140-1, Engineered persulcatusin with [R13S/I18N]]		+
Engineered persulcatusin with [Mutation S7-144-11, Engineered persulcatusin with [R16S/R20S]]		++
Engineered persulcatusin with [Mutation S7-192-7, Engineered persulcatusin with [G9D/H14Q]]		++
G23A: persulcatusin (SEQ ID NO: 1) alanine-scan variant G23A (GFGCPFNQGACHRHCRSIGRRGAYCAGLFKQTCTCYSR; listed as Ixodes persulcatus) [Mutation G23A]	−	
Q8A: persulcatusin (SEQ ID NO: 1) alanine-scan variant Q8A (GFGCPFNAGACHRHCRSIGRRGGYCAGLFKQTCTCYSR; listed as Ixodes persulcatus) [Mutation Q8A]	−	
Engineered persulcatusin with [Mutation S7-176-3-1, Engineered persulcatusin with [R13S/R21S]]		++
C33A: persulcatusin (SEQ ID NO: 1) alanine-scan variant C33A (GFGCPFNQGACHRHCRSIGRRGGYCAGLFKQTATCYSR; listed as Ixodes persulcatus) [Mutation C33A]	−	
Engineered persulcatusin with [Mutation S7-140-10, Engineered persulcatusin with [R13S/R21G]]		+
Engineered persulcatusin with [Mutation S-176-2-1, Engineered persulcatusin with [F6V/R13S]]		++
